In a melting point compilation (Tetko et al.):

SMILES	melting point
Ic1cn[nH]c1	109 °C
Cc1[nH]c2ccccc2c1C#N	212 to 213 °C
OC(C1CCCCC1)(C1CCCCC1)C1CCCCC1	94 to 96 °C
CNc1ncnc(Cl)c1[N+](=O)[O-]	134 to 139 °C
O=C(c1ccccc1)c1ccc(C(=O)c2ccccc2)cc1	163 °C
Nc1cc(F)c(C(F)(F)F)c(F)c1	66 °C
C1CSCSC1	54 °C
N#Cc1ccc2c(c1)[N+]([O-])=C(c1ccc(C3=[N+]([O-])c4cc(C#N)ccc4C3=O)cc1)C2=O	360 °C
C(=C1c2ccccc2C2C1OC1/C(=C\c3ccccc3)c3ccccc3C12)c1ccccc1 (stereo not drawn)	214 to 215 °C
C#Cc1ccc(OC)cc1	28 to 30 °C
Nc1ccc2[nH]c(C(F)(F)F)nc2c1	188 °C
Cc1cccc(NC(=O)C(F)(F)C(F)(F)C(F)(F)C(F)(F)C(F)(F)C(F)(F)C(F)(F)C(F)(F)F)c1	97 °C
[O-][P+](c1ccccc1)(c1ccccc1)C1C2=C(CCCC2)OC2=C1CCCC2	157 °C
O=C1CCC(=O)N1c1nnc(C(F)(F)F)s1	221 °C
FC(Cl)(Cl)C(Cl)(Cl)Cl	101 °C
N#Cc1cc(Cl)ccc1O	165 to 168 °C
Cc1ccc(OC(=O)C(C)(c2ccccc2)c2ccccc2)cc1	111 °C
CCCN=C=O	-30 °C
CN(C)c1ccc([N+]([O-])=CC(=O)c2ccc(C(=O)C=[N+]([O-])c3ccc(N(C)C)cc3)cc2)cc1	132 to 134 °C
Cc1ccc2ccc(C)cc2c1	97 °C
COc1ccc(C2CC(c3ccc4ccccc4c3)=NN2C(N)=O)cc1 (stereo not drawn)	173 to 175 °C
Nc1nn2c(C(F)(F)F)cc(=O)[nH]c2c1/N=N/c1cccc(F)c1	305 to 306 °C
O=C(O)c1ccnn1-c1ccccc1	182 to 183 °C

SMILES	melting point
CC1(C)CC(=O)C2=C(C1)Nc1c(ccc3ccccc13)C2c1ccc(O)cc1 (stereo not drawn)	312 °C
Cc1nc2cc(C)c(C)cc2o1	93.5 to 94 °C
CCCCCCCCCCCCCC=CC(O)C(N)CO (stereo not drawn)	81 to 82 °C
Cn1c(=O)oc(=O)c2ccccc21	165 °C
FC(F)(F)c1nnc(S)n1-n1cccc1	165 °C
O=C1c2ccccc2C(=O)N1CCCCCBr	60 °C
O=C1C(=C2C(=Cc3coc4ccccc4c3=O)C(=O)c3ccccc32)C(=O)c2ccccc21	250 to 251 °C
N#C/C(=N\Nc1ccc(O)cc1)c1nc2ccccc2[nH]1	255 °C
FC(F)(F)C(Cl)(Cl)C(F)(F)Cl	-4.3 °C
CC(=O)c1ccc(NC(=O)c2ccccc2)c(C(=O)c2ccccc2)c1	177 °C
Ic1cccc(I)c1I	116 °C
Cc1c(Br)cc(N)cc1Br	91 °C
Cc1nc(-c2ccc(S(=O)(=O)N3CCOCC3)cc2)c(-c2ccc(S(=O)(=O)N3CCOCC3)cc2)o1	245 to 248 °C
C=CC(Cl)CCl (stereo not drawn)	-61 °C
Fc1cc(Br)c(Cl)c(Br)c1	86 °C
O=C1c2ccccc2CC2CCc3ccccc3N12 (stereo not drawn)	130 °C
N#Cc1ccc(C(Cl)=Cc2ccc(C=C(Cl)c3ccc(C#N)cc3[N+](=O)[O-])cc2)c([N+](=O)[O-])c1	296 °C
C[Si](C)(C)O[Si](C)(C)O[Si](C)(C)O[Si](C)(C)C	-68 °C
O=C(c1ccc2c3c(cccc13)CC2)C(O)c1ccccc1 (stereo not drawn)	138 °C
O=C1CCCCC1	-26 °C
Clc1ccc(-c2ccc(Br)nc2)cn1	244 °C
CC(O)c1c(F)c(F)c(F)c(F)c1F (stereo not drawn)	34 to 37 °C
CC(=O)C(C#N)c1ccccc1[N+](=O)[O-] (stereo not drawn)	72 °C

SMILES	melting point
O=c1ccc2cc(Cl)ccc2o1	165 °C
Fc1cc(Br)cc(Br)c1Br	30 to 34 °C
c1ccc2c(c1)[nH]c1cnccc12	199 to 201 °C
CC(C)[C@@H](C)CC[C@@H](C)[C@H]1CC[C@H]2C3=CC[C@H]4C[C@@H](O)CC[C@]4(C)[C@H]3CC[C@]12C	146 °C
CC1CCS(=O)(=O)C1 (stereo not drawn)	1 °C
Nc1nc(-c2ccccc2)ns1	152 to 156 °C
Cc1nc(-c2ccccc2)no1	35 °C
CC(CC(C)(C)C)CC(C)(C)C	-67 °C
COc1ccc(Nc2[nH]c(=S)nnc2-c2ccccc2)cc1	233 °C
O=C(c1ccccc1)C1C(=O)c2ccccc2C1=O	108 to 112 °C
O=C1C=C(NCc2ccc(Cl)c(Cl)c2)C(=O)c2ccccc21	217 °C
N#Cc1ccc(O)c(Cl)c1	150 to 153 °C
O=C1OC(c2ccccc2)=N/C1=C/c1ccc(-c2ccc(Br)cc2)o1	180 °C
Cn1cc(I)cn1	61 to 67 °C
CNc1ccccn1	15 °C
Cn1ccc(S(=O)(=O)Cl)n1	36 to 39 °C
O=C(O)CCc1cc2c(cc1[N+](=O)[O-])CCC(=O)N2	258 °C
N=C(N)N/N=C(\C(=S)Nc1ccc(Br)cc1)c1ccccc1	210 to 211 °C
COc1ccc(C2C(C#N)=C(N)Oc3cc(C)n(CCc4ccccc4)c(=O)c32)cc1 (stereo not drawn)	264 °C
Cc1ccc2oc3c(c2c1)-c1oc(C)cc1C(C)(c1ccccc1)CC3 (stereo not drawn)	119 °C
N#Cc1ccc(N)cc1C#N	181 °C
CC12CCC(C(=O)/C(=N\O)C1=O)C2(C)C (stereo not drawn)	109 °C
Cc1cc(NS(=O)(=O)c2ccc(N)cc2)nc(C)n1	243 °C

Other lines, results leading:

melting point	SMILES
99.5 °C	CC(=O)CC(=O)C(=O)O
106 °C	CCOC(=O)C1=C(CBr)NC(C)=C(C(=O)OC)C1c1cccc([N+](=O)[O-])c1 (stereo not drawn)
143 °C	CCC(C(N)=O)n1nnc2ccccc21 (stereo not drawn)
-17 °C	CC(=O)CO
129 °C	Cc1cc(CO)c(O)c(CO)c1
236 °C	COc1ccc(C=Cc2cc(O)cc(OC3OC(CO)C(O)C(O)C3O)c2)cc1O (stereo not drawn)
60 to 64 °C	CCCCOc1ccc(N)cc1[N+](=O)[O-]
167 °C	Cc1cccc(C)c1NC(=O)C1C2C=CC(C2)C1C(=O)O (stereo not drawn)
25 °C	COC(=O)C=C(CCl)OC
84 °C	O=C(NC(CSSCC(NC(=O)OCc1ccccc1)C(=O)O)C(=O)O)OCc1ccccc1 (stereo not drawn)
22 °C	Cc1ccc(CO)c(C)c1
60 to 64 °C	CC(C)(C)C(=O)Nc1ccncc1C=O
162 °C	CC(C)NCC(O)COc1cccc2ccccc12 (stereo not drawn)
70 °C	CCOC(=O)c1nc2ccccc2s1
140 to 142 °C	COC(=O)c1cc2c(OC)cccc2[nH]1
198 to 201 °C	O=C(C=NO)Nc1cc(Cl)ccc1Cl
170 °C	CCOC(=O)Oc1c(-c2ccccc2)[nH]c2cc([N+](=O)[O-])ccc12
39 to 42 °C	Cc1nn(C)c(C)c1S(=O)(=O)Cl
50.5 °C	COc1cc(N=C=S)cc(OC)c1
109 °C	COc1c(C)c(C)c(OC)c2c1CC2=O

melting point	SMILES
163 to 166 °C	O=C(O)C=Cc1cccc(Cl)c1
229 to 231 °C	CCOC(=O)c1c(C)n(O)c2ccc3nonc3c12
121 to 124 °C	COC(=O)c1ccccc1SCC#N
126 to 128 °C	CCOC(=O)CC1Sc2ccccc2NC1=O (stereo not drawn)
263 °C	CC(=O)OCC(=O)C1(O)C(C)CC2C3CCC4=CC(=O)C=CC4(C)C3(F)C(O)CC21C (stereo not drawn)
201 °C	CC1(C)C2CCC1(C)C(C(=O)O)OC2=O (stereo not drawn)
70.3 °C	CC(C)(C)OC(=O)NC(Cc1ccc(Br)s1)C(=O)O (stereo not drawn)
160 °C	CC(NC(=O)C(C)NC(=O)C(N)CCP(C)(=O)O)C(=O)O (stereo not drawn)
122 to 126 °C	O=C(NC(CO)C(=O)O)OCc1ccccc1 (racemic)
48 to 52 °C	CC(=O)NCCc1ccccc1
-36 °C	C=CN(C)C(C)=O
87 to 89 °C	CCOC(=O)c1sc(SC(C)C)c2c1CC(C)(C)CC2=O
125 °C	CCCC(CCC)C(N)=O
160 to 161 °C	COc1ccc(-c2n[nH]cc2C=O)cc1
54 to 56 °C	CCOC(=O)C1C(C)=NN=C1N (stereo not drawn)
207 °C	CCOC(=O)NNC(=O)Nc1ccc(Cl)c(Cl)c1
91 °C	CCOC(=O)N1C(=O)c2ccccc2C1=O
196 to 199 °C	COc1ccc([N+](=O)[O-])c(SC(C)C(=O)O)n1 (stereo not drawn)
92 °C	CC(=O)NCc1cnccc1C
123 to 128 °C	CC(C(=O)O)c1ccc(CBr)cc1 (stereo not drawn)

melting point	SMILES
112 °C	COc1ccc(C(=O)C(O)c2ccc(OC)cc2)cc1 (stereo not drawn)
105 to 109 °C	Cc1ccc(S(=O)(=O)NC(Cc2ccccc2)C(=O)CCl)cc1 (stereo not drawn)
19 °C	O=C(O)CC1C=CCC1 (stereo not drawn)
151 °C	O=C(O)Cc1c(Cl)cccc1C(F)(F)F
210 °C	Cc1cc(=O)oc2cc(OP(=O)(O)O)ccc12
154 to 157 °C	COC(=O)C1CC(=O)C(C(=O)OC)CC1=O (stereo not drawn)
-75 °C	CCCCOC(=O)CC
160 to 163 °C	CNc1ccc(C(=O)O)cc1
135 to 137 °C	NC(=O)CC[C@H](NC(=O)OCc1ccccc1)C(=O)O
180 °C	CC(=O)c1cc(C(C)=O)c(O)cc1O
221 to 223 °C	Cn1ccc2cc(C(=O)O)ccc21
101 to 105 °C	O=C(NCCCC[C@H](NC(=O)OCc1ccccc1)C(=O)O)OCC1c2ccccc2-c2ccccc21
100 °C	CC(=O)C(=O)Nc1ccccc1
120 to 123 °C	Cc1ccc(F)cc1NC(N)=S
199 to 200 °C	CSc1nc(N)c(C(N)=O)s1
166 to 168 °C	Cc1cc2nnc(C(=O)O)c(C)n2n1
110 to 112 °C	CCOC(=O)Cc1c(C(=O)OCC)[nH]c(C)c1C(=O)OCc1ccccc1
39.2 °C	CCCCCCC(C=O)=Cc1ccccc1
63.8 °C	CCCCCCCCCCCCCCCCCCCCCCCCCC(=O)OC
